The target of test [1] is T1, Mdm2/p53 binding (GST-Mdm2 / His-p53) (Homo sapiens, UniProt Q00987, L33E).
T1 construct: Mdm2 partial protein having Mdm2 amino acids at positions 25 to 108
The experiment in a line: Mdm2/p53 binding assay (HTRF, His-p53 and GST-Mdm2). Particulars: His-p53 (aa 1-132) and GST-Mdm2 (aa 25-108, L33E) 6.25 nM each; 25°C, 1 hour; values given as ranges. The essentials: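 His-p53 (aa 1–132) and GST-Mdm2 (aa 25–108, L33E) were prepared at 6.25 nM each in the protein dilution (20 mM HEPES pH 7.4, 150 mM NaCl, 0.1% BSA). Compound in 10% DMSO buffer and XL665 anti-His/Eu anti-GST antibodies (KF buffer) were added, with 1 h at 25 °C. The 665/620 nm TR-FRET ratio gave T/C and a sigmoid-fitted IC50.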

Test [2] deals with human lung cancer-derived cell line NCI-H460 having wild-type p53. The experiment in a line: Cell growth inhibition assay (MTT). Particulars: 72 h, NCI-H460 cells, 3 days culture, values given as ranges, read-out: 50% growth inhibition concentration (GI50 value). The format is cell-based. Put shortly:
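NCI-H460 cells (wild-type p53) seeded at 500 cells/well in RPMI1640 with 10% FBS, then treated the next day and grown 3 days at 37 °C. MTT read-out at OD 540 nm (660 nm reference), taken at dosing and at day 3. GI50 derived from T/C (%) dose-response curves.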

Structures are written as SMILES.

T1 sequence (Q00987 25-108 L33E): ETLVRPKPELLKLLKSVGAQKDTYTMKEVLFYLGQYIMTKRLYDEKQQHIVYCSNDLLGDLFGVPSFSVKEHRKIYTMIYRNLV

In turn, `CO[C@@H]1C[C@@H](NC(=O)[C@@H]2NC3(CCC(C)(C)CC3)[C@@]3(C(=O)Nc4cc(Cl)ccc43)[C@H]2c2ccnc(Cl)c2F)CO[C@@H]1CO` [Example 69, (3′R, 4′S,5′R)-6″-chloro-4′-(2-chloro-3-fluoropyridin-4-yl)-N-((3R,5R,6R)-6-(hydroxymethyl)-5-methoxytetrahydro-2H-pyran-3-yl)-4,4-dimethyl-2″-oxo-1″,2″-dihydrodispiro[cyclohexane-1,2′-pyrrolidine-3′,3″-indole]-5′-carboxamide] gave an IC50 in test [1] of 0.001 to 0.05 µM. Besides, the GI50 in test [2] fell in the range of 0.1 to 0.5 µM.

Take `CCNC(=O)[C@@H]1CC[C@@H](NC(=O)[C@@H]2NC3(CCC(C)(C)CC3)[C@@]3(C(=O)Nc4cc(Cl)ccc43)[C@H]2c2ccnc(Cl)c2F)CO1` [Example 88, (3′R, 4′S,5′R)-6″-chloro-4′-(2-chloro-3-fluoropyridin-4-yl)-N-[(3R,6S)-6-(ethylcarbamoyl)tetrahydro-2H-pyran-3-yl]-4,4-dimethyl-2″-oxo-1″,2″-dihydrodispiro[cyclohexane-1,2′-pyrrolidine-3′,3″-indole]-5′-carboxamide]: the IC50 in test [1] lay in the range of 0.05 to 0.1 µM. Moreover, the GI50 in test [2] was 0.1 to 0.5 µM.

`CC(C)NC(=O)[C@@H]1CC[C@@H](NC(=O)[C@@H]2NC3(CCC(C)(C)CC3)[C@@]3(C(=O)Nc4cc(Cl)ccc43)[C@H]2c2ccnc(Cl)c2F)CO1` [Example 96, (3′R, 4′S,5′R)-6″-chloro-4′-(2-chloro-3-fluoropyridin-4-yl)-N-[(3R,6S)-6-(isopropylcarbamoyl)tetrahydro-2H-pyran-3-yl]-4,4-dimethyl-2′-oxo-1″,2″-dihydrodispiro[cyclohexane-1,2′-pyrrolidine-3′,3″-indole]-5′-carboxamide]: the IC50 in test [1] was in the range of 0.05 to 0.1 µM. Further, the GI50 in test [2] was 0.1 to 0.5 µM.

`CC1(C)CCC2(CC1)N[C@@H](C(=O)N[C@@H]1CC[C@@H](C(=O)NC3CC3)OC1)[C@H](c1ccnc(Cl)c1F)[C@]21C(=O)Nc2cc(Cl)ccc21` [Example 97, (3′R, 4′S,5′R)-6″-chloro-4′-(2-chloro-3-fluoropyridin-4-yl)-N-[(3R,6S)-6-(cyclopropylcarbamoyl)tetrahydro-2H-pyran-3-yl]-4,4-dimethyl-2″-oxo-1″,2″-dihydrodispiro[cyclohexane-1,2′-pyrrolidine-3′,3″-indole]-5′-carboxamide]: the IC50 in test [1] fell in the range of 0.001 to 0.05 µM. The GI50 in test [2] is 0.1 to 0.5 µM.

On to `CNC(=O)[C@@H]1CC[C@@H](NC(=O)[C@@H]2NC3(CCC(C)(C)CC3)[C@@]3(C(=O)Nc4cc(Cl)ccc43)[C@H]2c2ccnc(Cl)c2F)CO1` [Example 99, (3′R, 4′S,5′R)-6″-chloro-4′-(2-chloro-3-fluoropyridin-4-yl)-N-[(3R,6S)-6-(methylcarbamoyl)tetrahydro-2H-pyran-3-yl]-4,4-dimethyl-2″-oxo-1″,2″-dihydrodispiro[cyclohexane-1,2′-pyrrolidine-3′,3″-indole]-5′-carboxamide], for which the IC50 in test [1] lay in the range of 0.001 to 0.05 µM. In test [2], the GI50 was less than 0.1 µM.

In the case of `CN(C)C(=O)[C@@H]1CC[C@@H](NC(=O)[C@@H]2NC3(CCC(C)(C)CC3)[C@@]3(C(=O)Nc4cc(Cl)ccc43)[C@H]2c2ccnc(Cl)c2F)CO1` [Example 100, (3′R, 4′S,5′R)-6″-chloro-4′-(2-chloro-3-fluoropyridin-4-yl)-N-[(3R,6S)-6-(dimethylcarbamoyl)tetrahydro-2H-pyran-3-yl]-4,4-dimethyl-2″-oxo-1″,2″-dihydrodispiro[cyclohexane-1,2′-pyrrolidine-3′,3′″-indole]-5′-carboxamide], the IC50 in test [1] lay in the range of 0.001 to 0.05 µM. Moreover, the GI50 in test [2] is less than 0.1 µM.

For `CC1(C)CCC2(CC1)N[C@@H](C(=O)N[C@@H]1CC[C@@H](C(=O)N3CC(O)C3)OC1)[C@H](c1ccnc(Cl)c1F)[C@]21C(=O)Nc2cc(Cl)ccc21` [Example 107, (3′R, 4′S,5′R)-6″-chloro-4′-(2-chloro-3-fluoropyridin-4-yl)-N-{(3R,6S)-6-[(3-hydroxyazetidin-1-yl)carbonyl]tetrahydro-2H-pyran-3-yl}-4,4-dimethyl-2″-oxo-1″,2″-dihydrodispiro[cyclohexane-1,2′-pyrrolidine-3′,3″-indole]-5′-carboxamide], the IC50 in test [1] was in the range of 0.001 to 0.05 µM. For the same compound, the GI50 in test [2] fell in the range of 0.1 to 0.5 µM.

On to `CC1(C)CCC2(CC1)N[C@@H](C(=O)N[C@@H]1CC[C@@H](C(=O)NC3CCOCC3)OC1)[C@H](c1ccnc(Cl)c1F)[C@]21C(=O)Nc2cc(Cl)ccc21` [Example 109, (3′R, 4′S,5′R)-6″-chloro-4′-(2-chloro-3-fluoropyridin-4-yl)-4,4-dimethyl-2″-Oxo-N-[(3R,6S)-6-(tetrahydro-2H-pyran-4-ylcarbamoyl)tetrahydro-2H-pyran-3-yl]-1″,2″-dihydrodispiro[cyclohexane-1,2′-pyrrolidine-3′,3″-indole]-5′-carboxamide], for which the IC50 in test [1] was 0.001 to 0.05 µM. Also, in test [2], the GI50 fell in the range of 0.1 to 0.5 µM.

With `CC1(C)CCC2(CC1)N[C@@H](C(=O)N[C@@H]1CC[C@@H](C(=O)N3CCOCC3)OC1)[C@H](c1ccnc(Cl)c1F)[C@]21C(=O)Nc2cc(Cl)ccc21` [Example 110, (3′R, 4′S,5′R)-6″-chloro-4′-(2-chloro-3-fluoropyridin-4-yl)-4,4-dimethyl-N-[(3R,6S)-6-(morpholin-4-ylcarbonyl)tetrahydro-2H-pyran-3-yl]-2″-oxo-1″,2″-dihydrodispiro[cyclohexane-1,2′-pyrrolidine-3′,3″-indole]-5′-carboxamide], in test [1], the IC50 is 0.001 to 0.05 µM. Besides, the GI50 in test [2] is less than 0.1 µM.

As to `CC1(C)CCC2(CC1)N[C@@H](C(=O)N[C@@H]1CC[C@@H](CC(N)=O)OC1)[C@H](c1ccnc(Cl)c1F)[C@]21C(=O)Nc2cc(Cl)ccc21` [Example 111, (3′R, 4′S,5′R)—N-[(3R,6S)-6-(2-amino-2-oxoethyl)tetrahydro-2H-pyran-3-yl]-6″-chloro-4′-(2-chloro-3-fluoropyridin-4-yl)-4,4-dimethyl-2″-oxo-1″,20-dihydrodispiro[cyclohexane-1,2′-pyrrolidine-3′,3″-indole]-5′-carboxamide], the half-inhibitory concentration (IC50) in test [1] was 0.001 to 0.05 µM. Also, the GI50 in test [2] lay in the range of 0.1 to 0.5 µM.

`CC1(C)CCC2(CC1)N[C@@H](C(=O)N[C@H]1C[C@H](c3nnco3)C1)[C@H](c1ccnc(Cl)c1F)[C@]21C(=O)Nc2cc(Cl)ccc21` [Example 112, (3′R, 4′S, S′R)-6″-chloro-4′-(2-chloro-3-fluoropyridin-4-yl)-4,4-dimethyl-N-[trans-3-(1,3,4-oxadiazol-2-yl)cyclobutyl]-2″-oxo-1″,2″-dihydrodispiro[cyclohexane-1,2′-pyrrolidine-3′,3″-indole]-5-carboxamide] showed an IC50 in test [1] of 0.05 to 0.1 µM. For the same compound, the GI50 in test [2] was 0.1 to 0.5 µM.

With `CN(C)C(=O)[C@H]1CC[C@H](NC(=O)[C@@H]2NC3(CCC(C)(C)CC3)[C@@]3(C(=O)Nc4cc(Cl)ccc43)[C@H]2c2ccnc(Cl)c2F)CC1` [Example 113, (3′R, 4′S,5′R)-6″-chloro-4′-(2-chloro-3-fluoropyridin-4-yl)-N-[trans-4-(dimethylcarbamoyl)cyclohexyl]-4,4-dimethyl-2″-oxo-1″,2″-dihydrodispiro[cyclohexane-1,2′-pyrrolidine-3′,3″-indole]-5′-carboxamide], the IC50 in test [1] was in the range of 0.001 to 0.05 µM. In addition, the GI50 in test [2] is less than 0.1 µM.

In general, IC50 refers to the concentration needed to halve the response being measured. Higher therefore signals lower potency.

These data come from patent US12545685B2 (Daiichi Sankyo Company, Limited, priority 2011, dated 2026).
